From patent publication US8501755B2, “Tetrahydropyridothienopyrimidine compounds and methods of use thereof” (Bayer Intellectual Property GmbH, priority 2006, dated 2013)

Key:
Type in all cases: cell-based
H1975 cells = assay: In vitro tumor cell proliferation assay (Cell Titer-Glo) in H1975 cells; settings: NCI-H1975; H1975 human NSCLC expressing mutant HER1 (L858R,T790M); 72 hours exposure; read-out: IC50, activities in H 1975 cell lines
Method in brief: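 After 72 h compound exposure at 37° C (top 10 uM down to 64 pM, 0.1% DMSO), viability of EGFR L858R/T790M-mutant H1975 cells was read as ATP luminescence.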

N87 = assay: In vitro tumor cell proliferation assay (Cell Titer-Glo) in N87 cells; settings: N87 human gastric carcinoma overexpressing HER2 and HER1; 72 hours exposure; read-out: IC50, activities in N87 cell lines
Method in brief: (§1)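 Viability after 72 h drug exposure at 37 °C was read as CellTiter-Glo ATP luminescence, giving IC50. Cells (2.5×10^3/well, RPMI + 10% FBS) were compound-treated one day post-seeding, 0.1% DMSO final: A431 overexpresses HER1, N87 overexpresses HER2 and HER1.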

A431 cells = assay: In vitro tumor cell proliferation assay (Cell Titer-Glo) in A431 cells; settings: Homo sapiens, A-431, 72 h, A431 human epidermoid carcinoma overexpressing HER1; 72 hours exposure; read-out: IC50, activities in A431 cell lines
Method in brief: as §1

Row | IC50 (H1975 cells) [nM] | IC50 (N87) [nM] | IC50 (A431 cells) [nM] | Structure (SMILES)
1 | 200 to 1000 | < 200 | 200 to 1000 | C#Cc1cccc(Nc2ncnc3sc4c(c23)CCN(C(=O)C#CCCN2CCCCC2)C4)c1 [Example 141, N-(3-ethynylphenyl)-7-(5-piperidin-1-ylpent-2-ynoyl)-5,6,7,8-tetrahydropyrido [4′,3′:4,5]thieno[2,3-d]pyrimidin-4-amine]
2 | 200 to 1000 | < 200 | 200 to 1000 | O=C(C#CCCN1CCCCC1)N1CCc2c(sc3ncnc(Nc4ccc(OCc5cccc(F)c5)c(Cl)c4)c23)C1 [Example 142, N-{3-chloro-4-[(3-fluorobenzyl)oxy]phenyl}-7-(5-piperidin-1-ylpent-2-ynoyl)-5,6,7,8-tetrahydropyrido [4′,3′:4,5]thieno[2,3-d]pyrimidin-4-amine]
3 | 200 to 1000 | < 200 | 200 to 1000 | C=C(CN(CC)CC)C(=O)N1CCc2c(sc3ncnc(Nc4ccc(OCc5ccccn5)c(Cl)c4)c23)C1 [Example 143, N-[3-chloro-4-(pyridin-2-ylmethoxy)phenyl]-7-{2-[(diethylamino)methyl]acryloyl}-5,6,7,8-tetrahydropyrido[4′,3′:4,5]thieno[2,3-d]pyrimidin-4-amine]
4 | 1000 to 10000 | < 200 | 1000 to 10000 | C=C(CN1CCOCC1)C(=O)N1CCc2c(sc3ncnc(Nc4ccc(OCc5ccccn5)c(Cl)c4)c23)C1 [Example 144]
5 | 1000 to 10000 | 200 to 5000 | 1000 to 10000 | C=C(CN1CCOCC1)C(=O)N1CCc2c(sc3ncnc(Nc4ccc(F)c(Cl)c4)c23)C1 [Example 145, N-(3-chloro-4-fluorophenyl)-7-[2-(morpholin-4-ylmethyl)acryloyl]-5,6,7,8-tetrahydropyrido [4′,3′:4,5]thieno[2,3-d]pyrimidin-4-amine]
6 | 1000 to 10000 | < 200 | 1000 to 10000 | C=C(CN1CCOCC1)C(=O)N1CCc2c(sc3ncnc(Nc4ccc(OCc5cccc(F)c5)c(Cl)c4)c23)C1 [Example 146, N-{3-chloro-4-[(3-fluorobenzyl)oxy]phenyl}-7-[2-(morpholin-4-ylmethyl)acryloyl]-5,6,7,8-tetrahydropyrido [4′,3′:4,5]thieno[2,3-d]pyrimidin-4-amine]
7 | 1000 to 10000 | < 200 | 200 to 1000 | C=C(CN(CC)CC)C(=O)N1CCc2c(sc3ncnc(Nc4ccc(F)c(Cl)c4)c23)C1 [Example 147, N-(3-chloro-4-fluorophenyl)-7-{2-[(diethylamino)methyl]acryloyl}-5,6,7,8-tetrahydropyrido [4′,3′:4,5]thieno[2,3-d]pyrimidin-4-amine]
8 | 1000 to 10000 | < 200 | 1000 to 10000 | C#Cc1cccc(Nc2ncnc3sc4c(c23)CCN(C(=O)C(=C)CN(CC)CC)C4)c1 [Example 148, 7-{2-[(diethylamino)methyl]acryloyl}-N-(3-ethynylphenyl)-5,6,7,8-tetrahydropyrido [4′,3′:4,5]thieno[2,3-d]pyrimidin-4-amine]
9 | 200 to 1000 | < 200 | 200 to 1000 | C=C(CN(CC)CC)C(=O)N1CCc2c(sc3ncnc(Nc4ccc(OCc5cccc(F)c5)c(Cl)c4)c23)C1 [Example 149, N-{3-chloro-4-[(3-fluorobenzyl)oxy]phenyl}-7-{2-[(diethylamino)methyl]acryloyl}-5,6,7,8-tetrahydropyrido [4′,3′:4,5]thieno[2,3-d]pyrimidin-4-amine]
10 | < 200 | < 200 | < 200 | CN(C)CC/C=C/C(=O)N1CCc2c(sc3ncnc(Nc4ccc(OCc5ccccn5)c(Cl)c4)c23)C1 [Example 150, 1-[4-[3-chloro-4-(pyridin-2-ylmethoxy)-phenylamino]-5,8-dihydro-6H-9-thia-1,3,7-triaza-fluoren-7-yl}-5-dimethylamino-pent-2-en-1-one]
11 | 1000 to 10000 | 200 to 5000 | 1000 to 10000 | O=C(/C=C/CCO)N1CCc2c(sc3ncnc(Nc4ccc(F)c(Cl)c4)c23)C1 [Example 151, (3E)-5-{4-[(3-chloro-4-fluorophenyl)amino]-5,8-dihydropyrido [4′,3′:4,5]thieno[2,3-d]pyrimidin-7(6H)-yl}-5-oxopent-3-en-1-ol]
12 | 1000 to 10000 | < 200 | 1000 to 10000 | O=C(/C=C/CCN1CCCC1)N1CCc2c(sc3ncnc(Nc4ccc(F)c(Cl)c4)c23)C1 [Example 152, N-(3-chloro-4-fluorophenyl)-7-[(2E)-5-pyrrolidin-1-ylpent-2-enoyl]-5,6,7,8-tetrahydropyrido [4′,3′:4,5]thieno[2,3-d]pyrimidin-4-amine]
13 | 1000 to 10000 | < 200 | 1000 to 10000 | CN(C)CC/C=C/C(=O)N1CCc2c(sc3ncnc(Nc4ccc(F)c(Cl)c4)c23)C1 [Example 153]
14 | 1000 to 10000 | < 200 | 1000 to 10000 | O=C(/C=C/CCN1CCCCC1)N1CCc2c(sc3ncnc(Nc4ccc(F)c(Cl)c4)c23)C1 [Example 154, N-(3-chloro-4-fluorophenyl)-7-[(2E)-5-piperidin-1-ylpent-2-enoyl]-5,6,7,8-tetrahydropyrido [4′,3′:4,5]thieno[2,3-d]pyrimidin-4-amine]
15 | < 200 | < 200 | < 200 | CN(C)C/C=C/C(=O)N1CCc2c(sc3ncnc(Nc4cccc(Br)c4)c23)C1 [Example 160, N-(3-bromophenyl)-7-[(2E)-4-(dimethylamino)but-2-enoyl]-5,6,7,8-tetrahydropyrido [4′,3′:4,5]thieno[2,3-d]pyrimidin-4-amine]
16 | 200 to 1000 | < 200 | 200 to 1000 | CN(C)C/C=C/C(=O)N1CCc2c(sc3ncnc(Nc4ccccc4)c23)C1 [Example 161, 7-[(2E)-4-(dimethylamino)but-2-enoyl]-N-phenyl-5,6,7,8-tetrahydropyrido [4′,3′:4,5]thieno[2,3-d]pyrimidin-4-amine]
17 | 1000 to 10000 | < 200 | 200 to 1000 | CN(C)C/C=C/C(=O)N1CCc2c(sc3ncnc(Nc4ccc(F)cc4F)c23)C1 [Example 162, N-(2,4-difluorophenyl)-7-[(2E)-4-(dimethylamino)but-enoyl]-5,6,7,8-tetrahydropyrido [4′,3′:4,5]thieno[2,3-d]pyrimidin-4-amine]
18 | 200 to 1000 | < 200 | 200 to 1000 | CN(C)C/C=C/C(=O)N1CCc2c(sc3ncnc(Nc4ccc(Cl)cc4)c23)C1 [Example 163, N-(4-chlorophenyl)-7-[(2E)-4-(dimethylamino)but-2-enoyl]-5,6,7,8-tetrahydropyrido [4′,3′:4,5]thieno[2,3-d]pyrimidin-4-amine]
19 | 200 to 1000 | < 200 | 200 to 1000 | CN(C)C/C=C/C(=O)N1CCc2c(sc3ncnc(Nc4cccc(Cl)c4)c23)C1 [Example 164, N-(3-chlorophenyl)-7-[(2E)-4-(dimethylamino)but-2-enoyl]-5,6,7,8-tetrahydropyrido [4′,3′:4,5]thieno[2,3-d]pyrimidin-4-amine]
20 | < 200 | < 200 | 200 to 1000 | CN(C)C/C=C/C(=O)N1CCc2c(sc3ncnc(Nc4ccc(Cl)c(Cl)c4)c23)C1 [Example 165, N-(3,4-dichlorophenyl)-7-{(2E)-4-[dimethylamino]but-2-enoyl}-5,6,7,8-tetrahydropyrido[4′,3′:4,5]thieno[2,3-d]pyrimidin-4-amine]
